{"source": "BindingDB's records for doi:10.1021/acs.jmedchem.9b01283", "about": "(Pharmaxis, 2019)", "target": "Diamine oxidase AOC1 (Homo sapiens)", "test": "Inhibition of recombinant human DAO using putrescine as substrate preincubated with enzyme for 30 mins followed by substrate addition and measured every 2.5 mins for 30 mins by Amplex-Red oxidation assay", "note": "pIC50: −log10 of the molar value.", "data": [{"smiles": "Cc1c(-c2cccc(S(=O)(=O)N(C)C)c2)c2ccccc2n1CC(F)=CCN", "values": [{"measurement": "pIC50", "value": 5.40}]}, {"smiles": "Cc1c(-c2cccc(S(=O)(=O)N(C)C)c2)c2cc(C(=O)O)ccc2n1CC(F)=CCN", "values": [{"measurement": "pIC50", "value": "< 5.00"}]}]}
